Laboratory results published in patent US20140243302A1, “BRIDGED BICYCLIC COMPOUNDS FOR THE TREATMENT OF BACTERIAL INFECTIONS” (priority 2011, published 2014).
Values after ≈ are worked out from the molar mass of the structure shown. Where a name gives a salt, the structure may show the parent alone. Values belong to the compound of their own block, whether it stands above or below them.

Tests used:
Type in all cases: cell-based
[1] = system: Staphylococcus aureus Smith; experiment: MIC assay, modified agar dilution (CLSI), S. aureus Smith; details: for susceptibility of S. aureus Smith based on MIC interpretive standards defined by CLSI: reference antibiotics; for MIC: Staphylococcus aureus, read-out: S_aureus_Smith_WT_MIC; for MIC / S_aureus_Smith_WT_MIC: agar dilution, 35° C., 16-20 hr, lowest concentration that completely inhibited growth
Outline: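 Agar dilution per CLSI on Mueller Hinton agar (plus 5% horse blood for S. pneumoniae and E. faecium), compound 128 to 0.001 μg/mL in two-fold steps. Spots of ~1×10^4 CFU incubated at 35 °C for 16-20 hr before MIC scoring.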

[2] = system: Streptococcus pneumoniae IID554; experiment: MIC assay, modified agar dilution (CLSI), S. pneumoniae IID554; details: for susceptibility of S. pneumoniae IID554 based on MIC interpretive standards defined by CLSI: reference antibiotics; for Strep_Pn_IID554_WT_MIC: agar dilution, MHA with 5% defibrinated horse blood
Procedure: (§1) The potency of antibacterial agents was measured using the Minimal Inhibitory Concentration (MIC) assay. The assay measures the ability of test agents to inhibit the growth of bacteria on agar-containing medium.
(§2) The bacterial test strains used were exemplified by Staphylococcus aureus Smith, Enterococcus faecium A2373, Streptococcus pneumoniae IID554, and Escherichia coli ATCC 25922. All strains were maintained as frozen stocks held at −80° C. in skim milk. Other bacterial test strains are well known to those skilled in the art and can be used for testing.
(§3) Mueller Hinton Agar (MHA BBL; Becton Dickinson and Company, Sparks, Md.) was used as the medium. MHA was supplemented with 5% defibrinated horse blood (DHB; Nippon Biotest Laboratories inc.) to support the growth of S. pneumoniae and E. faecium.
(§4) MIC values were determined using a modified agar dilution procedure described by the Clinical and Laboratory Standards Institute (CLSI; Methods for Dilution Antimicrobial Susceptibility Tests for Bacteria That Grow Aerobically; Approved Standard—Eighth Edition. CLSI document M07-A8 [ISBN 1-56238-689-1]. Clinical and Laboratory Standards Institute, 940 West Valley Road, Suite 1400, Wayne, Pa. 19087-1898 USA, 2009).
(§5) Stock solutions (6.4 mgmL) of test compounds were prepared in 100% ultrapure dimethyl sulfoxide (DMSO; source) on the day of the assay. Subsequent serial dilutions were performed to generate solutions with concentrations ranging from 6.4 to 0.0002 mgmL in 100% DMSO.
Agar medium containing test compound was prepared by adding the dilutions of antimicrobial solution to molten MHA at a temperature of 45-50° C. The agar and antimicrobial solution were mixed thoroughly, poured into petri dishes, and allowed to solidify at room temperature. The final concentration of test compounds in the MHA medium ranged from 128 to 0.001 μg/mL with two-fold dilutions. MHA plates lacking antibacterial compound were used for growth controls.
Prior to susceptibility testing, the bacterial isolates were removed from frozen storage, thawed at room temperature, sub-cultured to MHA medium and incubated overnight at 35° C. S. pneumoniae and E. faecium were subcultured on MHA supplemented with 5% DHB at 35° C. with […]. Colonies from each plate were suspended in normal saline. This suspension was adjusted to the turbidity of a 0.5 McFarland standard, 1-2×10^8 colony forming units (CFU) per mL, and diluted 100-fold to 1-2×10^6 CFUmL.
Suspensions of bacterial cultures were applied to the surface of MHA plates containing test compound as well as to a growth control plate lacking test compound using an inoculum-replicating device with 4 mm pins. The replicating device applied 5 uL of the bacterial suspension such that each spot contained approx. 1×10^4 CFU. […]

[3] = system: Enterococcus faecium A2373; experiment: MIC assay, modified agar dilution (CLSI), E. faecium A2373; details: reference antibiotics
Procedure: as §1, §2, §3, §4
(§6) Stock solutions (6.4 mgmL) of test compounds were prepared in 100% ultrapure dimethyl sulfoxide (DMSO; source) on the day of the assay. […]

[4] = system: Escherichia coli ATCC 25922; experiment: MIC assay, modified agar dilution (CLSI), E. coli ATCC 25922
Procedure: as §1, §2, §3, §4, §6

[5] = system: Pseudomonas aeruginosa PAO1; experiment: MIC assay, modified agar dilution (CLSI), P. aeruginosa PAO1
Procedure: as §1, §3, §4, §5
(§7) Agar medium containing test compound was prepared by adding the dilutions of antimicrobial solution to molten MHA at a temperature of 45-50° C. […]

A_bau_IID876 = experiment: MIC assay, modified agar dilution (CLSI), A_bau_IID876
Procedure: as §1, §3, §4, §5, §7

Compound: CC(=O)NC[C@H]1CN(c2ccc(N3CCOCC3)c(F)c2)C(=O)O1 [linezolid, reference compound]
susceptibility of S. aureus Smith based on MIC interpretive standards defined by CLSI [1]: susceptible
susceptibility of S. pneumoniae IID554 based on MIC interpretive standards defined by CLSI [2]: susceptible
susceptibility of E. faecium A2373 [3]: susceptible

Compound: CN[C@H](CC(C)C)C(=O)N[C@H]1C(=O)N[C@@H](CC(N)=O)C(=O)N[C@H]2C(=O)N[C@H]3C(=O)N[C@H](C(=O)N[C@H](C(=O)O)c4cc(O)cc(O)c4-c4cc3ccc4O)[C@H](O)c3ccc(c(Cl)c3)Oc3cc2cc(c3O[C@@H]2O[C@H](CO)[C@@H](O)[C@H](O)[C@H]2O[C@H]2C[C@](C)(N)[C@H](O)[C@H](C)O2)Oc2ccc(cc2Cl)[C@H]1O [vancomycin, reference compound]
susceptibility of S. aureus Smith based on MIC interpretive standards defined by CLSI [1]: susceptible
susceptibility of S. pneumoniae IID554 based on MIC interpretive standards defined by CLSI [2]: susceptible
susceptibility of E. faecium A2373 [3]: resistant

Compound: COc1ccc2ncc(F)c(CCC34CCC(NCc5ccc6c(n5)NC(=O)CO6)(CC3)CO4)c2n1.Cl [Example 18, 6-((1-(2-(3-Fluoro-6-methoxy-1,5-naphthyridin-4-yl)ethyl)-2-oxabicyclo[2.2.2]octan-4-ylamino)methyl)-2H-pyrido[3,2-b][1,4]oxazin-3(4H)-one Hydrochloride]
MIC [1]: 0.016 µg/mL
Strep_Pn_IID554_WT_MIC [2]: 0.0630 µg/mL
E_coli_ATCC25922_WT_MIC [4]: 1.00 µg/mL
P_ae_PAO1_WT_MIC [5]: 4.00 µg/mL
A_bau_IID876_WT_MIC (A_bau_IID876): 0.500 µg/mL

Compound: COc1ccc2ncc(F)c(CCC34CCC(NC/C=C/c5ccccn5)(CC3)CO4)c2n1 [Example 193, (E)-1-(2-(3-Fluoro-6-methoxy-1,5-naphthyridin-4-yl)ethyl)-N-(3-(pyridin-2-yl)allyl)-2-oxabicyclo[2.2.2]octan-4-amine]
MIC [1]: 0.031 µg/mL (≈ 0.0691 µM)

Compound: COc1ccc2ncc(Cl)c(C(O)CC34CCC(NCc5ccc6c(n5)NC(=O)CO6)(CC3)CC4)c2n1 (single isomer, unassigned) [Example 13b, 6-((4-(2-(3-Chloro-6-methoxy-1,5-naphthyridin-4-yl)-2-hydroxyethyl)bicyclo[2.2.2]octan-1-ylamino)methyl)-2H-pyrido[3,2-b][1,4]oxazin-3(4H)-one]
S_aureus_Smith_WT_MIC [1]: 0.0630 µg/mL

Compound: N[C@@H]1CO[C@H]1COc1ccc2ncc(F)c(CCC34CCC(NCc5ccc6c(n5)NC(=O)CO6)(CC3)CO4)c2n1 [Example 185, 6-((1-(2-(6-(((2R,3R)-3-Aminooxetan-2-yl)methoxy)-3-fluoro-1,5-naphthyridin-4-yl)ethyl)-2-oxabicyclo[2.2.2]octan-4-ylamino)methyl)-2H-pyrido[3,2-b][1,4]oxazin-3(4H)-one]
MIC [1]: 0.125 µg/mL (≈ 0.221 µM)

Compound: COc1ccc2ccc(=O)n(CC(O)C34CCC(NCc5ccc6c(n5)NC(=O)CO6)(CC3)CO4)c2n1 (single isomer, unassigned) [Example 52a, 6-(((1-(1-Hydroxy-2-(7-methoxy-2-oxo-1,8-naphthyridin-1(2H)-yl)ethyl)-2-oxabicyclo[2.2.2]octan-4-yl)amino)methyl)-2H-pyrido[3,2-b][1,4]oxazin-3(4H)-one]
S_aureus_Smith_WT_MIC [1]: 0.0310 µg/mL

Compound: COc1ccc2ncc(C#N)c(CCC34CCC(NCc5cc6c(cn5)OCCO6)(CC3)CO4)c2n1 [Example 45, 4-(2-(4-((2,3-Dihydro-[1,4]dioxino[2,3-c]pyridin-7-yl)methylamino)-2-oxabicyclo[2.2.2]octan-1-yl)ethyl)-6-methoxy-1,5-naphthyridine-3-carbonitrile Hydrochloride]
MIC [1]: 0.031 µg/mL

Compound: COc1ccc2ncc(F)c(CC(O)C34CCC(NCc5ccc6c(n5)OCCO6)(CC3)CO4)c2n1 (stereo not drawn) [Example 147, 1-(4-((2,3-Dihydro-[1,4]dioxino[2,3-b]pyridin-6-yl)methylamino)-2-oxabicyclo[2.2.2]octan-1-yl)-2-(3-fluoro-6-methoxy-1,5-naphthyridin-4-yl)ethanol]
MIC [1]: 0.125 µg/mL (≈ 0.252 µM)

Compound: COc1ccc2ncc(F)c(CCC34CCC(NCc5ccc(N6CCCCC6)nc5)(CC3)CO4)c2n1 [Example 84, 1-(2-(3-Fluoro-6-methoxy-1,5-naphthyridin-4-yl)ethyl)-N-((6-(piperidin-1-yl)pyridin-3-yl)methyl)-2-oxabicyclo[2.2.2]octan-4-amine]
MIC [1]: 0.25 µg/mL (≈ 0.494 µM)

Now from value to compound, other results behind:

MIC [1]: 0.063 µg/mL
Compound: COc1ccc2ncc(F)c(CC(O)C34CCC(NCc5ccc6c(n5)NC(=O)CO6)(CC3)CO4)c2n1.Cl (single isomer, unassigned) [Example 20a, 6-((1-(2-(3-Fluoro-6-methoxy-1,5-naphthyridin-4-yl)-1-hydroxyethyl)-2-oxabicyclo[2.2.2]octan-4-ylamino)methyl)-2H-pyrido[3,2-b][1,4]oxazin-3(4H)-one Hydrochloride]
Strep_Pn_IID554_WT_MIC [2]: 0.250 µg/mL
E_coli_ATCC25922_WT_MIC [4]: 4.00 µg/mL
P_ae_PAO1_WT_MIC [5]: 16.0 µg/mL
A_bau_IID876_WT_MIC (A_bau_IID876): 1.00 µg/mL

MIC [1]: 0.063 µg/mL (≈ 0.112 µM)
Compound: O=C1COc2ccc(CNC34CCC(CCc5c(F)cnc6ccc(OCC7(CO)CC7)nc56)(CC3)OC4)nc2N1 [Example 42, 6-((1-(2-(3-Fluoro-6-((1-(hydroxymethyl)cyclopropyl)methoxy)-1,5-naphthyridin-4-yl)ethyl)-2-oxabicyclo[2.2.2]octan-4-ylamino)methyl)-2H-pyrido[3,2-b][1,4]oxazin-3(4H)-one]

MIC [1]: 1 µg/mL (≈ 1.93 µM)
Compound: COc1ccc2ncc(F)c(CC(O)C34CCC(NCc5cc6ccccc6n(C)c5=O)(CC3)CO4)c2n1 (single isomer, unassigned) [Example 133, 3-((1-(2-(3-Fluoro-6-methoxy-1,5-naphthyridin-4-yl)-1-hydroxyethyl)-2-oxabicyclo[2.2.2]octan-4-ylamino)methyl)-1-methylquinolin-2(1H)-one]

MIC [1]: 0.125 µg/mL
Compound: Cc1ccc2ccc(=O)n(CCC34CCC(NCc5ccc6c(n5)NC(=O)CO6)(CC3)CO4)c2n1.Cl [Example 111, 6-((1-(2-(7-Methyl-2-oxo-1,8-naphthyridin-1(2H)-yl)ethyl)-2-oxabicyclo[2.2.2]octan-4-ylamino)methyl)-2H-pyrido[3,2-b][1,4]oxazin-3(4H)-one Hydrochloride]

MIC [1]: 1 µg/mL (≈ 2.04 µM)
Compound: COc1ccc2ncc(F)c(CCC34CCC(NCc5nc6ccccc6[nH]c5=O)(CC3)CO4)c2n1 [Example 97, 3-(((1-(2-(3-Fluoro-6-methoxy-1,5-naphthyridin-4-yl)ethyl)-2-oxabicyclo[2.2.2]octan-4-yl)amino)methyl)quinoxalin-2(1H)-one]
